This data set relates to human mammary gland cancer cells (MDA-MB-231). The data set can be described thus: Viability of cells cultured after mixing the cell suspension with the Pt^2+ solution alone. Type of data set: cell-based. Conditions: final concentration of Pt^2+ 0.05 mM to 0.5 mM.

Turning to `[Cl][Pt-2]([Cl])([Cl])[Cl].[K+].[K+]` [Pt^2+ solution, Potassium tetrachloroplatinate(II) (K2PtCl4)], the cytotoxicity entry was “significant cytotoxicity was not recognized”.
